# In patent publication US9718771B2, “Aniline derivative, pharmaceutical composition containing same, and use thereof” (Kissei Pharmaceutical Co., Ltd., priority 2014, dated 2017):
# Tests used:
# [1] = test system: Naïve T cells-transferred colitis model; experiment: Drug efficiency evaluation in naïve T cells-transferred colitis model; assay type: in vivo; details: SCID mice, mean ± standard error
# Protocol: The Drug Efficiency Evaluation in Naïve T Cells—Transferred Colitis Model
# (1) Purification of CD45RB Positive Naïve T Cells and Transfer the Cells into SCID Mice
# After female BALB/c mice (Charles River Japan, 8-weeks-old in use) were sacrificed by blood removal from cervical vein under inhalation anesthesia with isoflurane spleens were harvested from these mice. Spleens were washed with ice-cold PBS (phosphate buffered saline, Invitrogen) and stored in 50 mL tube containing PBS on ice. Spleens stored on ice were mashed with the upper portion of slide glasses inside a biological safety cabinet, and filtered through a cell filter (pore size 70 μm), and the filtrate was centrifuged at 500×g, room temperature for 5 minutes. After the supernatant was removed, 12 mL of RBC lysis buffer (Biolegend) was added to a cell pellet and it was resuspended and left for about 3 minutes. The supernatant was removed after centrifugation and the hemolytic process was performed by repeating same procedure once again.
# The cells were purified with Mouse Naive T cell CD4^+/CD62L^+/CD44^low Colum Kit (R&D systems). The cells performed with the hemolytic process, were suspended by column buffer attached to the above Column Kit, and purified through a cell filter (pore size 70 μm) after centrifugation at 500×g, room temperature for 5 minutes. The cells were resuspended with column buffer, and antibody cocktails attached to the above Column Kit were added to this and mixed. After that, the cells were purified according to the protocol of the Column Kit.
# Next, purification of CD45RB positive cells was performed by MACS (registered mark) separator (Miltenyi Biotec). The purified cells were suspended with 2 mL of PBS containing 0.5% BSA, and reacted at room temperature for 15 minutes after adding FITC (fluorescein isothiocyanate)-labeled anti-CD45RB antibody (Biolegend). After washing two times with PBS containing 0.5% BSA by centrifugation, the cells were resuspended with 2 mL of PBS containing 0.5% BSA and reacted at room temperature for 10 minutes after adding anti-FITC microbeads (Miltenyi Biotec). After washing one time with PBS containing 0.5% BSA by centrifugation, the cells were resuspended with 3 mL of PBS containing 0.5% BSA, and a fraction of CD45RB positive cells was purified according to the protocol of MACS (registered trademark) separator. In the process of elution after detached from MACS (registered trademark) separator, the cells were separated with 5 mL of PBS. The cell suspension was washed one time by centrifugation with PBS, resuspended by appropriate PBS and measured the cell number as naïve T cells suspension for transfer. Female CB17/Icr-scid/scid Jcl (SCID mice) (Charles River Japan, 8-weeks-old in use) were induced colitis by intraperitoneal administration of 500 μL (divided into 250 μL two times) of naïve T cells suspension prepared at 6×10^5 cells/mL by PBS.
# (2) Measurement of Body Weight and Procedure for Administration of Drugs
# Body weights were measured at day 1, 8 and 15 as day 0 when naïve T cells were transferred to mice. Mice were grouped evenly, based on body weight change at day 15. The measurement of body weight was performed two times a week after day 15. A solvent (Vehicle) and test compounds were administered twice a day from the evening of day 15. The administration solution was prepared as indicated below. Firstly, 0.5% methyl cellulose (Wako pure chemicals) of 1/10 volume of total volume was added to test compound, and a suspension was prepared by sonication. […] After that, administration solutions for test compounds were prepared by sonication while adding distilled water of 9/10 volume of total volume to these suspensions in several batches. A solution prepared in the same volume ratios of 0.5% methyl cellulose and distilled water as administration solutions for test compounds was used as vehicle. Administration solutions for vehicle or test compounds were orally administered to mice at 5 mL/kg.
# [2] = test system: male guinea pigs; experiment: Confirmation test for reduction effects on heart rate; assay type: in vivo; details: anesthetized guinea pigs, intravenous (vein of penis), 0.03 mg/kg
# Excerpt: Confirmation Test for Reduction Effects on Heart Rate
# Effects on heart rate of a test compound and fingolimod, which is an S1P1 receptor agonist, were confirmed using male guinea pigs (Japan SLC, 5 to 8-weeks-old in use). Guinea pigs were incised in the median line of cervical region under anesthesia with pentobarbital (Kyoritsu Pharmaceutical) by intraperitoneal administration. A PE90 catheter filled with saline (Otsuka Pharmaceutical Factory) containing 50 units/mL heparin (Mochida Pharmaceutical) was inserted to right common carotid artery. By holding the insertion site of the catheter with silk sutures, it was performed to avoid bleeding from the insertion site and to fix the catheter. After it was confirmed that blood flow reached into the catheter, an apical end of catheter opposite to the insertion site of artery was connected to pressure transducer, and blood pressure and heart rate were measured via a strain pressure amplifier and a heart rate counter unit, respectively. […]
# After it was confirmed that blood pressure and heart rate were stabilized in guinea pigs, vehicle, the test compound or fingolimod was administered into the vein of penis at 0.25 mL/kg using 1 mL syringes with needles of 27G. The changes of blood pressure and heart rate were measured every 5 minutes after administration of vehicle, the test compound or fingolimod.
# [3] = oral twice a day, 1.5 mg/kg, vehicle group = 100%
structure (smiles),measurement,setting,value
"Nc1ccc(O)c(C(=O)O)c1 [5-Aminosalicylic acid, reference compound]",Colon weight (%),"[1]; oral twice a day, vehicle group = 100%",75.9 ± 58.3%
"C[C@]12C=CC(=O)C=C1CC[C@@H]1[C@@H]2[C@@H](O)C[C@@]2(C)[C@H]1CC[C@]2(O)C(=O)CO [Prednisclone, reference compound]",Body weight change ratio (%),"[1]; oral twice a day from day 15, 1.5 mg/kg, day 30",−10.4 ± 1.4%
same,Colon weight (%),[1]; [3],58.3 ± 18.9%
same,DAI score (%),[1]; [3],104.4 ± 20.0%
CCCCCCCCc1ccc(CCC(N)(CO)CO)cc1 [fingolimod],effect on heart rate,[2],remarkable reduction of heart rate
